Assay results published in patent publication US5356794A, “Purified enzymatic preparation derived from chromobacterium violaceum, method for preparing it and its use in the production of α, β-dehydrotryptophanyl-peptides” (priority 1991, dated 1994).

What was measured:
Type in all cases: biochemical, Chromobacterium violaceum
L-Trp 2',3'-oxidase [1] = assay: Conversion of Trp in proteins by L-Trp 2',3'-oxidase in 24 hours; details: standard conditions, E/S ≈ 1/1000, values given as a guide
Protocol: (*): Values given as a guide, giving an idea of the conversion of Trp in
the proteins in 24 hours, under the standard conditions defined in Exampl
As specified above, the accessibility of the tryptophanyl residues, both with respect to the indolyl ring and with respect to the Cα and Cβ protons, plays a major role.

L-Trp 2',3'-oxidase [2] = assay: Specificity of the reaction (conversion of amino acid derivatives and indole compounds); details: for effect of conversion of substrates with free α-amino group on the enzyme: after a few minutes, absorbance at 320 nm rises then decreases
Text: No conversion could be observed for the aromatic amino acids: N-acetyl-L-phenylalaninamide and N-acetyl-L-tyrosinamide. The same is the case when the indole ring is substituted: 5-hydroxyl L-Trp, N-formyl L-Trp and for the isomers of the D series: D-tryptophan and N-acetyl-D-tryptophan.
This phenomenon is much more rapid when the α-carboxyl functional group is not substituted (L-Trp, comp. I), and results in the formation of an unstable imine (II) which is hydrolysed to give rise to the α-keto compounds (indole-3-pyruvic acid (III) and its amide homologue respectively)--FIG. 6--. It is therefore preferable to block the α-amino functional group so as to avoid any isomerisation phenomenon and to ensure greater stability of the dehydro compound.

L-Trp 2',3'-oxidase [3] = assay: Kinetics of dehydrogenation of substrates by purified L-Trp 2',3'-oxidase (appearance of dehydro product at 330 nm); details: substrate of L-Trp 2',3'-oxidase, in the presence of catalase
Protocol: Measurements of the specific activity of the enzyme as well as all the kinetic experiments in the steady state, were performed under the standard conditions defined below:
Substrate: 1 mMN-acetyl-L-tryptophanamide (NATA)
Buffer: 50 mM succinate, pH 5.5
by directly monitoring the appearance of the dehydro product at 330 nm (FIG. 3). The specific activity (As) of fraction Q1 is calculated on the basis of a molar extinction coefficient at 330 nm of 18.8 mM^-1.cm^-1 determined in the laboratory (against ε330 =19.89 mM^-1.cm^-1 in the literature; TAKAI et al. mentioned above). NATA, which represents the smallest peptide chain possible, is used as reference substrate for the enzymatic reaction. The specific activity of the preparation (As) is estimated at 39.5±3.1 units for NATA (an enzymatic unit represents a mole of product formed per second per mole of heme).
The dehydrogenation of NATA was monitored as a function of the pH (pH 3-5, 6-8) at a temperature of 30° C. in 50 mM succinate buffer, pH 5.6. The reaction products are analysed and purified by reversed-phase HPLC and then freeze-dried and analysed by mass spectrometry (desorption by chemical ionisation: DCI). ΔNATA is the only product of the enzymatic reaction which is characterised by HPLC (single peak, γmax 333 nm) and by mass spectrophotometry (MH^+ =244).
The procedure is as in Example 1.7).
All the reactions were performed in the presence of catalase. In each case, the kinetic constants (Kcat and Km) are calculated so as to evaluate the efficiency of the enzyme for each type of substrate.

## β-Lactoglobulin: protein substrate, 162 residues, Trp19-Trp51, 32 kDa
L-Trp 2',3'-oxidase [1]
  conversion of Trp in the proteins: 2 % of conversion

## N[C@@H](Cc1c[nH]c2ccccc12)C(=O)O [L-tryptophan]
L-Trp 2',3'-oxidase [2]
  effect of conversion of substrates with free α-amino group on the enzyme: complete inhibition of the enzyme

## CC(=O)N[C@H](Cc1c[nH]c2ccccc12)C(=O)O [N-acetyl-D-tryptophan]
L-Trp 2',3'-oxidase [2]
  conversion by the enzyme (specificity of the reaction): No conversion

## NCCc1c[nH]c2ccccc12 [tryptamine]
L-Trp 2',3'-oxidase [2]
  conversion by the enzyme (specificity of the reaction): no reaction

## O=C(O)CCc1c[nH]c2ccccc12 [indole-3-propionic acid]
L-Trp 2',3'-oxidase [2]
  conversion by the enzyme (specificity of the reaction): oxidised to indole-3-acrylic acid

## N[C@@H](Cc1c[nH]c2ccc(O)cc12)C(=O)O [5-hydroxyl L-Trp]
L-Trp 2',3'-oxidase [2]
  conversion by the enzyme (specificity of the reaction): No conversion

## O=CN[C@@H](Cc1c[nH]c2ccccc12)C(=O)O [N-formyl L-Trp]
L-Trp 2',3'-oxidase [2]
  conversion by the enzyme (specificity of the reaction): No conversion

## NC(=O)[C@@H](N)Cc1c[nH]c2ccccc12 [L-tryptophanamide]
L-Trp 2',3'-oxidase [2]
  effect of conversion of substrates with free α-amino group on the enzyme: complete inhibition of the enzyme

## CSCC[C@H](NC(=O)[C@H](Cc1c[nH]c2ccccc12)NC(=O)CCNC(=O)OC(C)(C)C)C(=O)N[C@@H](CC(=O)O)C(=O)N[C@@H](Cc1ccccc1)C(N)=O [Pentagastrin]
L-Trp 2',3'-oxidase [3]
  Kcat/Km: 10^6 M^-1.s^-1
L-Trp 2',3'-oxidase [3]; 30° C., 50 mM succinate buffer
  Kcat: 32 s⁻¹
  Km: 26 µM

## N[C@H](Cc1c[nH]c2ccccc12)C(=O)O [D-tryptophan]
L-Trp 2',3'-oxidase [2]
  conversion by the enzyme (specificity of the reaction): No conversion

B1: Catalase: protein substrate, 506 residues, six Trp, 232 kDa (EC 1.11.1.6) (protein, UniProt P00432 2-527, looked up)
Catalase: ADNRDPASDQMKHWKEQRAAQKPDVLTTGGGNPVGDKLNSLTVGPRGPLLVQDVVFTDEMAHFDRERIPERVVHAKGAGAFGYFEVTHDITRYSKAKVFEHIGKRTPIAVRFSTVAGESGSADTVRDPRGFAVKFYTEDGNWDLVGNNTPIFFIRDALLFPSFIHSQKRNPQTHLKDPDMVWDFWSLRPESLHQVSFLFSDRGIPDGHRHMNGYGSHTFKLVNANGEAVYCKFHYKTDQGIKNLSVEDAARLAHEDPDYGLRDLFNAIATGNYPSWTLYIQVMTFSEAEIFPFNPFDLTKVWPHGDYPLIPVGKLVLNRNPVNYFAEVEQLAFDPSNMPPGIEPSPDKMLQGRLFAYPDTHRHRLGPNYLQIPVNCPYRARVANYQRDGPMCMMDNQGGAPNYYPNSFSAPEHQPSALEHRTHFSGDVQRFNSANDDNVTQVRTFYLKVLNEEQRKRLCENIAGHLKDAQLFIQKKAVKNFSDVHPEYGSRIQALLDKYNEEKPKNAVHTYVQHGSHLSAREKANL
L-Trp 2',3'-oxidase [1]
  conversion of Trp in the proteins: 12 % of conversion
